Reference: EPA's ToxValDB 9.5 (doi:10.2903/j.efsa.2019.5595)
Values after ≈ are worked out from the molar mass of the structure shown.

Legend:
Typhlodromus pyri = assay: LR50; higher = less toxic; conditions: acute; mortality
Cyprinodon variegatus = conditions: acute; duration: 96 hours; oral; feed; mortality
Oncorhynchus mykiss = conditions: acute; duration: 96 hours; oral; feed; mortality
Hyalella azteca = conditions: acute; duration: 96 hours; mortality
Apis mellifera = conditions: acute, duration: 48 hours, mortality
Bibionidae = conditions: chronic/long-term; duration: 29 days
Oryctolagus sp. = conditions: developmental; development
Lepomis macrochirus = conditions: acute; oral; feed; mortality
Cyprinus carpio = conditions: chronic/long-term
Tagia sp. = conditions: acute; duration: 14 days; mortality

N#CN=C1SCCN1Cc1ccc(Cl)nc1 [Thiacloprid]
LR50 (Typhlodromus pyri): 0.331 g/ha | LC50 (Cyprinodon variegatus): 19.7 µg/mL (≈ 77.9 µM) | LC50 (Oncorhynchus mykiss): > 90.1 µg/mL | LC50 (Hyalella azteca): > 47.6 µg/mL | LD50 (Apis mellifera; dermal): 38.8 µg/piece | LD50 (Apis mellifera; oral, unspecified): 17.3 µg/piece | NOEC (Bibionidae): 0.63 µg/kg | NOAEL (Serinus canaria; acute, oral, unspecified, mortality): 15 mg/kg-day | LD50 (Serinus canaria; chronic/long-term): 3.5 mg/kg-day | NOAEL (Oryctolagus sp.): 2 mg/kg-day | LC50 (Lepomis macrochirus): > 78.6 µg/mL | NOEC (Cyprinus carpio): 4.5 µg/L | LD50 (Rattus norvegicus; acute, oral, Fischer 344, mortality): 177 mg/kg-day | NOAEL (Rattus norvegicus; chronic, histopathology: nonneoplastic): 1.2 mg/kg-day | NOAEL (Rattus norvegicus; developmental, development): 2 mg/kg-day | NOAEL (Rattus norvegicus; reproduction developmental, reproduction): 3.3 mg/kg-day | LC50 (Tagia sp.): 105 mg/kg
